Data reported in PMC12663214, “Synthesis, structural elucidation, and molecular docking of diclofenac-derived hydrazone metal complexes with anti-inflammatory and anticancer potential” (Scientific Reports, 2025).
pIC50: −log10 of the molar value. Several values for one entry are separate records, joined by “and”; a condition that tells them apart may be missing. Equal entries are not always repeated. Where two headings read alike, the source gives them in different places. Values belong to the molecule of their own block, whether it stands above or below them.

Experiments:
[1] = test system: HepG-2 (liver cancer) cell line; conditions: cited from earlier work
[2] = test system: MCF-7 (breast cancer) cell line; conditions: cited from earlier work
[3] = molecular target: T1, recombinant COX-2 (human) (Homo sapiens, UniProt P35354); experiment: COX-2 inhibition, ELISA kit (Cayman Chemical); assay type: biochemical; conditions: for COX-2 selectivity index (S.I.): ratio of COX-1 IC50 to COX-2 IC50; for pIC50: human recombinant COX-2, ELISA
T1 construct: purchased Cayman Chemical 560131
T1 sequence (P35354 18-604): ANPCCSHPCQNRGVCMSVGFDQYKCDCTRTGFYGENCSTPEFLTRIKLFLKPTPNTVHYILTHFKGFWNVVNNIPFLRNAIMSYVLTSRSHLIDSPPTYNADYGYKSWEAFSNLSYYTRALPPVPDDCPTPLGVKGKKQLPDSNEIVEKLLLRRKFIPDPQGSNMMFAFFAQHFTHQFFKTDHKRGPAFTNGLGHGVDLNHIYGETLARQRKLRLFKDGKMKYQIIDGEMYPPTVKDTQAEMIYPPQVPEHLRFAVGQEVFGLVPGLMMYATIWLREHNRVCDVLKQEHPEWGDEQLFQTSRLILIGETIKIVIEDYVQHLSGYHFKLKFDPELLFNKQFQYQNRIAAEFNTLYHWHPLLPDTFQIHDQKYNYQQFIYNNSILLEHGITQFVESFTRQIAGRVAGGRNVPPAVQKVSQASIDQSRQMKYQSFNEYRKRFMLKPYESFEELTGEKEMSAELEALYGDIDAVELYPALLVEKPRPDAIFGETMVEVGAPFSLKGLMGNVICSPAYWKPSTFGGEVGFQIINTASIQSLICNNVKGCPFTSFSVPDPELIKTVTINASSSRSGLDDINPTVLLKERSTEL
From the text: (§1) These enzymes are crucial targets in the development of anti-inflammatory agents due to their roles in prostaglandin synthesis, with COX-1 associated with normal physiological functions and COX-2 predominantly involved in inflammation.

COX-1 (ovine) = molecular target: T2, COX-1 (ovine) (Ovis aries, UniProt P05979); experiment: COX-1 inhibition, ELISA kit (Cayman Chemical); assay type: biochemical; conditions: ovine COX-1, ELISA
T2 construct: purchased Cayman Chemical 560131
T2 sequence (P05979 25-600): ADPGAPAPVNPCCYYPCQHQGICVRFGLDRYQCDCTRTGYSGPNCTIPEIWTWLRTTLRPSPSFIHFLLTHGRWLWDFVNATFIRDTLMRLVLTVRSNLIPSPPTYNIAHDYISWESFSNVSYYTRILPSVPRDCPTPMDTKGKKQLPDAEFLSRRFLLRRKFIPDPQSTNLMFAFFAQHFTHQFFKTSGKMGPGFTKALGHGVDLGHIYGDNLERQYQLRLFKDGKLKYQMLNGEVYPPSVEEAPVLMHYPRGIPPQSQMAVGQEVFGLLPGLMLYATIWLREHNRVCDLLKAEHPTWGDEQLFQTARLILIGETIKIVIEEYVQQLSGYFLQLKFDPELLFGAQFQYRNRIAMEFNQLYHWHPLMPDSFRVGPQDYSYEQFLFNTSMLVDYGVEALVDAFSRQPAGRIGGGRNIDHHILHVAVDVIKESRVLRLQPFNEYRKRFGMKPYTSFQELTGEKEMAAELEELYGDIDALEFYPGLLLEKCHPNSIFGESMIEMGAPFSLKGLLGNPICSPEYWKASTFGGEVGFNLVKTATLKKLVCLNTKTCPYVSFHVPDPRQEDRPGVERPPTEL
From the text: as §1

[4] = test system: HepG-2 (liver cancer) cell line; experiment: MTT cytotoxicity assay, HepG-2; assay type: cell-based, homo sapiens, human
Experimental: (§2) MCF-7 and HepG-2 cell lines (provided by the Cell Culture Department, VACSERA, Egypt) were seeded in each 96-well tissue culture plate well at a concentration of 1 × 10^5 cells/ml, adding 100 µl/well. Incubation at 37 °C followed for 24 h until a full monolayer was established. The growth medium was later aspirated, and the cell monolayer was rinsed twice using wash media. It was then subjected to a two-fold dilution in an RPMI medium containing 2% serum, which is regarded as a maintenance medium. Later, 0.1 ml of each dilution was added to individual wells. Three wells were reserved for use as controls and received only the maintenance medium. The plate was then incubated at 37 °C and further monitored accordingly. The marks of toxicity to be checked on the cells include disruption of the cell monolayer, cell rounding and shrinking, or the appearance of granules. MTT solution is prepared from BIO BASIC CANADA INC with a 5 mg/ml strength in PBS. To ensure the MTT and media are well mixed, add 20 µl of MTT solution to each well and shake the plate. The MTT will be metabolized by incubating the plate at 37 °C with 5% CO2 for one to five hr. If there is any residual substance, get rid of the rest by drying the plate on paper towels. Add DMSO (200 µl) to dissolve the formazan (MTT metabolic product) and then put the plate on the shaking table set at 150 rpm for 5 min to assure that the formazan is fully dissolved into the solvent. Measure the optical density at 560 nm and subtract the background signal at 620 nm. The optical density value reflects directly the number of cells[28]–[30]. MCF-7 (breast cancer) and HepG-2 (liver cancer) cell lines.
(§3) The antitumor effects of the newly synthesized HDN ligand and its metal complexes with Cu(II) and Gd(III) were tested against MCF-7 (breast cancer) and HepG-2 (liver cancer) cell lines using the MTT assay[28]–[30].. This method measures cell viability based on mitochondrial activity, clearly indicating each compound’s cytotoxic potential. The key findings from these tests are outlined in Tables 4, S8, and S9 and illustrated in Figures S21-S31.

[5] = test system: MCF-7 (breast cancer) cell line; experiment: MTT cytotoxicity assay, MCF-7; assay type: cell-based, homo sapiens, human
Experimental: as §2, §3

[6] = Solubility in organic solvents; assay type: physicochemical

Molecule: O=c1[nH]cc(F)c(=O)[nH]1 [5-Fluorouracil]
pIC50 ([1]; ref [55],[56]): 4.49 | pIC50 ([2]; ref [55],[56]): 5.40

COX-2 selectivity index (S.I.) [3]: 14.15
Molecule: O.O=C(Cc1ccccc1Nc1c(Cl)cccc1Cl)NN=Cc1c([O-])ccc2ccccc12.[Ag+] [Ag(I)-HDN, [Ag(DN)(H2O)]]

Molecule: N.N.[Cl][Pt][Cl] [Cisplatin]
pIC50 ([1]; ref [57],[58]): 5.07 | pIC50 ([2]; ref [57],[58]): 4.82

pIC50 [3]: 6.21 | COX-2 selectivity index (S.I.) [3]: 13.71 | pIC50 (COX-1 (ovine)): 5.07
Molecule: O=C(Cc1ccccc1Nc1c(Cl)cccc1Cl)NN=Cc1c([O-])ccc2ccccc12.O=C(Cc1ccccc1Nc1c(Cl)cccc1Cl)NN=Cc1c([O-])ccc2ccccc12.[Co+2] [Co(II)-HDN, [Co(DN)2]]

Molecule: O=C(O)Cc1ccccc1Nc1c(Cl)cccc1Cl [Diclofenac sodium]
pIC50 ([1]; ref [54],[64]): 3.83 | pIC50 ([2]; ref [54],[64]): 2.75

pIC50 [3]: 6.02 | COX-2 selectivity index (S.I.) [3]: 6.31 | pIC50 (COX-1 (ovine)): 5.22
Molecule: O.O.O.O.O=C(Cc1ccccc1Nc1c(Cl)cccc1Cl)NN=Cc1c(O)ccc2ccccc12.O=C(Cc1ccccc1Nc1c(Cl)cccc1Cl)NN=Cc1c(O)ccc2ccccc12.O=[N+]([O-])[O-].O=[N+]([O-])[O-].O=[N+]([O-])[O-].[Gd+3] [Gd(III)-HDN, [Gd(HDN)2(NO3)2]NO3.4H2O]
Inhibition % ([4]; HepG-2, 0.31 µM/ml): 0.45% | Inhibition % ([4]; HepG-2, 0.62 µM/ml): 0.40% | Inhibition % ([4]; HepG-2, 1.25 µM/ml): 7.98% | Inhibition % ([4]; HepG-2, 2.50 µM/ml): 53.05% | Inhibition % ([4]; HepG-2, 5.00 µM/ml): 81.14% | Inhibition % ([4]; HepG-2, 10.00 µM/ml): 95.27% | Inhibition % ([4]; HepG-2, 10.00 µM/ml, listed as Gd(III) complex): exceeding 95% | pIC50 ([4]; MTT, HepG-2): 5.61 | Inhibition % ([5]; MCF-7, 0.31 µM/ml): 18.33% | Inhibition % ([5]; MCF-7, 0.62 µM/ml): 50.83% | Inhibition % ([5]; MCF-7, 1.25 µM/ml): 70.06% | Inhibition % ([5]; MCF-7, 2.50 µM/ml): 75.34% | Inhibition % ([5]; MCF-7, 5.00 µM/ml): 96.71% | Inhibition % ([5]; MCF-7, 10.00 µM/ml): 96.86% | Inhibition % ([5]; MCF-7, 10.00 µM/ml, listed as Gd(III) complex): exceeding 95% | pIC50 ([5]; MTT, MCF-7): 6.10

Molecule: CC(C)Cc1ccc(C(C)C(=O)O)cc1 (centres unmarked) [Ibuprofen]
pIC50 ([2]; ref [54]): 2.30

pIC50 [3]: 7.22 | COX-2 selectivity index (S.I.) [3]: 174.5 | solubility in acetone ([6]; organic solvent: acetone): slight solubility | solubility in DMSO and DMF ([6]; organic solvents: DMSO, DMF): dissolved well | solubility in EtOH and MeOH ([6]; organic solvents: EtOH, MeOH): didn’t dissolve | pIC50 (COX-1 (ovine)): 4.98
Molecule: O=C(Cc1ccccc1Nc1c(Cl)cccc1Cl)N/N=C/c1c(O)ccc2ccccc12 [Ligand [HDN], (E)−2-(2-((2,6-dichlorophenyl)amino)phenyl)-N’-((2-hydroxynaphthalen-1-yl)methylene)acetohydrazide]
inhibition at 31.25 µg/mL ([4]; Homo sapiens, HepG2, HepG-2, 31.25 µg/ml): 12.9% | inhibition at 62.5 µg/mL ([4]; Homo sapiens, HepG2, HepG-2, 62.5 µg/ml): 61.4% | inhibition at 250 µg/mL ([4]; Homo sapiens, HepG2, HepG-2, 250 µg/ml): 96.9% | inhibition at 500 µg/mL ([4]; Homo sapiens, HepG2, HepG-2, 500 µg/ml): 97.2% | inhibition at 1000 µg/mL ([4]; Homo sapiens, HepG2, HepG-2, 1000 µg/ml): 97% | IC50 ([4]; Homo sapiens, HepG2, MTT, HepG-2): 152 µM and 70.5 µg/mL | inhibition at 31.25 µg/mL ([5]; Homo sapiens, MCF7, MCF-7, 31.25 µg/ml): 7.98% | inhibition at 62.5 µg/mL ([5]; Homo sapiens, MCF7, MCF-7, 62.5 µg/ml): 52.5% | inhibition at 250 µg/mL ([5]; Homo sapiens, MCF7, MCF-7, 250 µg/ml): 89.2% | inhibition at 500 µg/mL ([5]; Homo sapiens, MCF7, MCF-7, 500 µg/ml): 97.3% | inhibition at 1000 µg/mL ([5]; Homo sapiens, MCF7, MCF-7, 1000 µg/ml): 97.5% | IC50 ([5]; Homo sapiens, MCF7, MTT, MCF-7): 178 µM and 82.6 µg/mL

Molecule: [Cu(DN)2]2.5H2O [Cu(II)-HDN]
Inhibition % ([4]; HepG-2, 0.31 µM/ml): 2.96% | Inhibition % ([4]; HepG-2, 0.62 µM/ml): 35.16% | Inhibition % ([4]; HepG-2, 1.25 µM/ml): 61.65% | Inhibition % ([4]; HepG-2, 2.50 µM/ml): 85.53% | Inhibition % ([4]; HepG-2, 5.00 µM/ml): 97.32% | Inhibition % ([4]; HepG-2, 10.00 µM/ml): 97.38% | Inhibition % ([4]; HepG-2, 10.00 µM/ml, listed as Cu(II) complex): exceeding 95% | pIC50 ([4]; MTT, HepG-2): 6.00 | Inhibition % ([5]; MCF-7, 0.31 µM/ml): 16.98% | Inhibition % ([5]; MCF-7, 0.62 µM/ml): 63.27% | Inhibition % ([5]; MCF-7, 1.25 µM/ml): 84.90% | Inhibition % ([5]; MCF-7, 2.50 µM/ml): 97.18% | Inhibition % ([5]; MCF-7, 5.00 µM/ml): 97.39% | Inhibition % ([5]; MCF-7, 10.00 µM/ml): 97.49% | Inhibition % ([5]; MCF-7, 10.00 µM/ml, listed as Cu(II) complex): exceeding 95% | pIC50 ([5]; MTT, MCF-7): 6.19 | times more potent than 5-fluorouracil ([5]; breast cancer cells (MCF-7), from IC50 values): approximately six
